Test results from patent US11053204B2, “Pyrimidinyloxy benzene derivatives as herbicides” (FMC Corporation, priority 2015, dated 2021).

How the values were obtained:
Format in all cases: in vivo
[1] = test system: kochia (Kochia scoparia); assay: Test C preemergence, plant response rating
[2] = test system: nightshade (eastern black nightshade, Solanum ptycanthum); assay: Test C preemergence, plant response rating
[3] = test system: geranium, cutleaf (cutleaf geranium, Geranium dissectum); assay: Test C postemergence, plant response rating; conditions: for Geranium, Cutleaf plant response rating: scale 0 to 100 (0 no effect, 100 complete control)
Outline: (§1)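 Pre-emergence: seeds sown in loam soil–sand blend or silt loam and sprayed with test chemicals in a non-phytotoxic solvent mixture with surfactant. Post-emergence: plants 2 to 18 cm (1- to 4-leaf stage) in peat-based potting medium, same formulation. Greenhouse 13 to 15 d; visual rating 0 (no effect) to 100 (complete control) versus controls.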

[4] = test system: wild mustard (Sinapis arvensis); assay: Test C postemergence, plant response rating; conditions: for Mustard, Wild plant response rating: scale 0 to 100 (0 no effect, 100 complete control)
Outline: as §1

[5] = test system: windgrass (Apera spica-venti); assay: Test C postemergence, plant response rating
Outline: as §1

[6] = test system: surinam grass (Brachiaria decumbens); assay: Test C postemergence, plant response rating
Outline: as §1

[7] = test system: speedwell (bird's-eye speedwell, Veronica persica); assay: Test C postemergence, plant response rating; conditions: for Speedwell plant response rating: scale 0 to 100 (0 no effect, 100 complete control)
Outline: as §1

[8] = test system: field violet (Viola arvensis); assay: Test C postemergence, plant response rating; conditions: for Field Violet plant response rating: scale 0 to 100 (0 no effect, 100 complete control)
Outline: as §1

[9] = test system: pigweed, palmer (palmer pigweed, Amaranthus palmeri); assay: Test C postemergence, plant response rating; conditions: for Pigweed, Palmer plant response rating: scale 0 to 100 (0 no effect, 100 complete control)
Outline: as §1

[10] = test system: Canada thistle (Cirsium arvense); assay: Test C postemergence, plant response rating; conditions: for Canada Thistle plant response rating: scale 0 to 100 (0 no effect, 100 complete control)
Outline: as §1

[11] = test system: johnsongrass (Sorghum halepense); assay: Test C postemergence, plant response rating; conditions: for Johnsongrass plant response rating: scale 0 to 100 (0 no effect, 100 complete control)
Outline: as §1

[12] = test system: field poppy (Papaver rhoeas); assay: Test C postemergence, plant response rating; conditions: for Field Poppy plant response rating: scale 0 to 100 (0 no effect, 100 complete control)
Outline: as §1

[13] = test system: nightshade (eastern black nightshade, Solanum ptycanthum); assay: Test C postemergence, plant response rating; conditions: for Nightshade plant response rating: scale 0 to 100 (0 no effect, 100 complete control)
Outline: as §1

[14] = test system: wild poinsettia (Euphorbia heterophylla); assay: Test C postemergence, plant response rating; conditions: for Poinsettia, Wild plant response rating: scale 0 to 100 (0 no effect, 100 complete control)
Outline: as §1

[15] = test system: buckwheat, wild (wild buckwheat, Polygonum convolvulus); assay: Test C postemergence, plant response rating; conditions: for Buckwheat, Wild plant response rating: scale 0 to 100 (0 no effect, 100 complete control)
Outline: as §1

[16] = test system: barnyardgrass (Echinochloa crus-galli); assay: Test C preemergence, plant response rating; conditions: Preemergence
[17] = test system: galium (catchweed bedstraw, Galium aparine); assay: Test C preemergence, plant response rating
[18] = test system: windgrass (Apera spica-venti); assay: Test C preemergence, plant response rating
[19] = test system: johnsongrass (Sorghum halepense); assay: Test C preemergence, plant response rating
[20] = test system: pigweed, palmer (palmer pigweed, Amaranthus palmeri); assay: Test C preemergence, plant response rating
[21] = 125 g ai/ha, scale 0 to 100 (0 no effect, 100 complete control)

N#Cc1cccc(Oc2ncc(Cl)cn2)c1COCCC(F)(F)F [Compound 80]
Plant response rating, Kochia ([1]; 31 g ai/ha, scale 0 to 100): 95
Plant response rating, Kochia ([1]; 62 g ai/ha, scale 0 to 100): 100
Plant response rating, Kochia ([1]; 125 g ai/ha, scale of 0 to 100): 100
Plant response rating, Nightshade ([2]; 31 g ai/ha, scale 0 to 100): 70
Plant response rating, Nightshade ([2]; 62 g ai/ha, scale 0 to 100): 85
Plant response rating, Nightshade ([2]; 125 g ai/ha, scale of 0 to 100): 90
Plant response rating, Geranium, Cutleaf ([3]; 16 g ai/ha, scale of 0 to 100): 30
Plant response rating, Geranium, Cutleaf ([3]; 31 g ai/ha, scale 0 to 100): 35
Geranium, Cutleaf plant response rating ([3]; 62 g ai/ha): 35
Geranium, Cutleaf plant response rating ([3]; 125 g ai/ha): 60
Plant response rating, Mustard, Wild ([4]; 16 g ai/ha, scale of 0 to 100): 75
Plant response rating, Mustard, Wild ([4]; 31 g ai/ha, scale 0 to 100): 80
Mustard, Wild plant response rating ([4]; 62 g ai/ha): 80
Mustard, Wild plant response rating ([4]; 125 g ai/ha): 90
Plant response rating, Windgrass ([5]; 16 g ai/ha, scale of 0 to 100): 0
Plant response rating, Windgrass ([5]; 31 g ai/ha, scale 0 to 100): 5
Windgrass plant response rating [5, 21]: 30
Plant response rating, Surinam Grass ([6]; 16 g ai/ha, scale of 0 to 100): 10
Plant response rating, Surinam Grass ([6]; 31 g ai/ha, scale 0 to 100): 10
Surinam Grass plant response rating [6, 21]: 25
Plant response rating, Speedwell ([7]; 16 g ai/ha, scale of 0 to 100): 90
Plant response rating, Speedwell ([7]; 31 g ai/ha, scale 0 to 100): 100
Speedwell plant response rating ([7]; 62 g ai/ha): 100
Speedwell plant response rating ([7]; 125 g ai/ha): 100
Plant response rating, Field Violet ([8]; 16 g ai/ha, scale of 0 to 100): 75
Plant response rating, Field Violet ([8]; 31 g ai/ha, scale 0 to 100): 85
Field Violet plant response rating ([8]; 62 g ai/ha): 90
Field Violet plant response rating ([8]; 125 g ai/ha): 95
Plant response rating, Pigweed, Palmer ([9]; 16 g ai/ha, scale of 0 to 100): 30
Plant response rating, Pigweed, Palmer ([9]; 31 g ai/ha, scale 0 to 100): 35
Pigweed, Palmer plant response rating ([9]; 62 g ai/ha): 70
Pigweed, Palmer plant response rating ([9]; 125 g ai/ha): 60
Plant response rating, Canada Thistle ([10]; 16 g ai/ha, scale of 0 to 100): 75
Plant response rating, Canada Thistle ([10]; 31 g ai/ha, scale 0 to 100): 75
Canada Thistle plant response rating ([10]; 62 g ai/ha): 75
Canada Thistle plant response rating ([10]; 125 g ai/ha): 85
Plant response rating, Johnsongrass ([11]; 16 g ai/ha, scale of 0 to 100): 5
Plant response rating, Johnsongrass ([11]; 31 g ai/ha, scale 0 to 100): 5
Johnsongrass plant response rating ([11]; 62 g ai/ha): 5
Johnsongrass plant response rating ([11]; 125 g ai/ha): 5
Plant response rating, Field Poppy ([12]; 16 g ai/ha, scale of 0 to 100): 70
Plant response rating, Field Poppy ([12]; 31 g ai/ha, scale 0 to 100): 75
Field Poppy plant response rating ([12]; 62 g ai/ha): 85
Field Poppy plant response rating ([12]; 125 g ai/ha): 85
Plant response rating, Nightshade ([13]; 16 g ai/ha, scale of 0 to 100): 60
Plant response rating, Nightshade ([13]; 31 g ai/ha, scale 0 to 100): 65
Nightshade plant response rating ([13]; 62 g ai/ha): 70
Nightshade plant response rating ([13]; 125 g ai/ha): 75
Plant response rating, Poinsettia, Wild ([14]; 16 g ai/ha, scale of 0 to 100): 65
Plant response rating, Poinsettia, Wild ([14]; 31 g ai/ha, scale 0 to 100): 65
Poinsettia, Wild plant response rating ([14]; 62 g ai/ha): 70
Poinsettia, Wild plant response rating ([14]; 125 g ai/ha): 75
Plant response rating, Buckwheat, Wild ([15]; 16 g ai/ha, scale of 0 to 100): 70
Plant response rating, Buckwheat, Wild ([15]; 31 g ai/ha, scale 0 to 100): 70
Buckwheat, Wild plant response rating ([15]; 62 g ai/ha): 75
Buckwheat, Wild plant response rating ([15]; 125 g ai/ha): 95
Plant response rating, Barnyardgrass ([16]; 62 g ai/ha, scale of 0 to 100): 70
Plant response rating, Barnyardgrass ([16]; 125 g ai/ha, scale of 0 to 100): 100
Plant response rating, Barnyardgrass ([16]; 16 g ai/ha, scale 0 to 100): 10
Plant response rating, Barnyardgrass ([16]; 31 g ai/ha, scale 0 to 100): 30
Plant response rating, Galium ([17]; 31 g ai/ha, scale 0 to 100): 5
Plant response rating, Galium ([17]; 62 g ai/ha, scale of 0 to 100): 75
Plant response rating, Galium ([17]; 125 g ai/ha, scale of 0 to 100): 98
Plant response rating, Windgrass ([18]; 31 g ai/ha, scale 0 to 100): 60
Plant response rating, Windgrass ([18]; 62 g ai/ha, scale 0 to 100): 100
Plant response rating, Windgrass ([18]; 125 g ai/ha, scale of 0 to 100): 100
Plant response rating, Johnsongrass ([19]; 31 g ai/ha, scale 0 to 100): 30
Plant response rating, Johnsongrass ([19]; 62 g ai/ha, scale 0 to 100): 55
Plant response rating, Johnsongrass ([19]; 125 g ai/ha, scale of 0 to 100): 60
Plant response rating, Pigweed, Palmer ([20]; 31 g ai/ha, scale 0 to 100): 85
Plant response rating, Pigweed, Palmer ([20]; 62 g ai/ha, scale 0 to 100): 100
Plant response rating, Pigweed, Palmer ([20]; 125 g ai/ha, scale of 0 to 100): 98
